Experimental data: article PMC8395219, “Comparative Analysis of Single-Molecule Dynamics of TRPV1 and TRPV4 Channels in Living Cells” (International Journal of Molecular Sciences, 2021)

Molecular target: T1, TRPV4 (Homo sapiens, UniProt Q9HBA0)
T1 construct: HaloTag fused to the N-terminus of human TRPV4, expressed in TRPV4-KO HEK293 cells
Test: FLIPR calcium mobilization assay in transfected TRPV4-KO HEK293 cells (agonist dose-response)
Type: cell-based

T1 sequence (Q9HBA0 whole entry, the tested form may be a part): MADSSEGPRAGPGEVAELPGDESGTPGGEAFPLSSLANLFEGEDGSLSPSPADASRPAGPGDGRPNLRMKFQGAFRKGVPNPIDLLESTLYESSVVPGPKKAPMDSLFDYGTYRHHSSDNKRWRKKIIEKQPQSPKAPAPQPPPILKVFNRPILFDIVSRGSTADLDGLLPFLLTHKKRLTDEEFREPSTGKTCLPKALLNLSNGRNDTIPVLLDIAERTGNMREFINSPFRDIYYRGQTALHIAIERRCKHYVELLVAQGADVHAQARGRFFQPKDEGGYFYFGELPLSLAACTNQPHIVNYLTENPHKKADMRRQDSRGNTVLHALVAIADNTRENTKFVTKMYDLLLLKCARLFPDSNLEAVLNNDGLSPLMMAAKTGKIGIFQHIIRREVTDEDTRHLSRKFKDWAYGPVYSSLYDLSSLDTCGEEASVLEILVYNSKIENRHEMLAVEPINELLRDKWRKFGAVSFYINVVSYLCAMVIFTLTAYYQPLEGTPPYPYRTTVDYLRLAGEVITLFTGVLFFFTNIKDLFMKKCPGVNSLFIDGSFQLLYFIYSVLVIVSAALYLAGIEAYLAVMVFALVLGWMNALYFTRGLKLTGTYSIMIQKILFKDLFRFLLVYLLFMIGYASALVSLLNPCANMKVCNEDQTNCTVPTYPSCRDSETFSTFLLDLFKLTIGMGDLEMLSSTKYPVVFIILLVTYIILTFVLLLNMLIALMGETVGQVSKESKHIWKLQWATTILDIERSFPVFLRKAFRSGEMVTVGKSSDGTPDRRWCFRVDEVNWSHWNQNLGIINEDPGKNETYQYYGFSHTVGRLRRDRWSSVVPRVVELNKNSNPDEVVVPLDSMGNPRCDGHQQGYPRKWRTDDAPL

With `CC(C)C[C@H](NC(=O)c1cc2ccccc2s1)C(=O)N1CCN(C(=O)[C@H](CO)NS(=O)(=O)c2ccc(Cl)cc2Cl)CC1` [GSK1016790A, N-((1S)-1-{[4-((2S)-2-{[(2,4-dichlorophenyl)sulfonyl]amino}-3-hydroxypropanoyl)-1-piperazinyl]carbonyl}-3-methylbutyl)-1-benzothiophene-2-carboxamide] the EC50 was 26 nM.
